# Results: PubChem BioAssay AID1259407 (Chemical Carcinogenesis Research Information System (CCRIS), 2018)
# Activity calls are given as the source filed them. How the calls were made is not given here.
# Tested on: CCRIS mutagenicity, Ames/micronucleus/aberration tests
# Assay: CCRIS mutagenicity studies
# [1] = Test System: AMES SALMONELLA TYPHIMURIUM, Strain/Indicator: TA98, Metabolic Activation: NONE, Method: PREINCUBATION
# [2] = Test System: AMES SALMONELLA TYPHIMURIUM, Strain/Indicator: TA100, Metabolic Activation: NONE, Method: PREINCUBATION
# [3] = Test System: AMES SALMONELLA TYPHIMURIUM, Strain/Indicator: TA1535, Metabolic Activation: NONE, Method: PREINCUBATION
# [4] = Test System: AMES SALMONELLA TYPHIMURIUM, Strain/Indicator: TA1537, Metabolic Activation: NONE, Method: PREINCUBATION
# [5] = Test System: AMES SALMONELLA TYPHIMURIUM, Strain/Indicator: TA98, Metabolic Activation: NONE, Method: STANDARD PLATE
# [6] = Test System: AMES SALMONELLA TYPHIMURIUM, Strain/Indicator: TA98, Metabolic Activation: RAT, LIVER, S-9, AROCLOR 1254, Method: STANDARD PLATE
# [7] = Test System: AMES SALMONELLA TYPHIMURIUM, Strain/Indicator: TA100, Metabolic Activation: NONE, Method: STANDARD PLATE
# [8] = Test System: AMES SALMONELLA TYPHIMURIUM, Strain/Indicator: TA100, Metabolic Activation: RAT, LIVER, S-9, AROCLOR 1254, Method: STANDARD PLATE
# [9] = Test System: AMES SALMONELLA TYPHIMURIUM, Strain/Indicator: TA1535, Metabolic Activation: NONE, Method: STANDARD PLATE
# [10] = Test System: AMES SALMONELLA TYPHIMURIUM, Strain/Indicator: TA1535, Metabolic Activation: RAT, LIVER, S-9, AROCLOR 1254, Method: STANDARD PLATE
# [11] = Test System: AMES SALMONELLA TYPHIMURIUM, Strain/Indicator: TA1537, Metabolic Activation: NONE, Method: STANDARD PLATE
# [12] = Test System: AMES SALMONELLA TYPHIMURIUM, Strain/Indicator: TA1537, Metabolic Activation: RAT, LIVER, S-9, AROCLOR 1254, Method: STANDARD PLATE
structure (smiles),measurement,setting,value
COC(C)=O,mutagenic call,"Test System: AMES SALMONELLA TYPHIMURIUM, Strain/Indicator: TA97, Metabolic Activation: HAMSTER, LIVER, S-9, AROCLOR 1254 (10 OR 30%), Method: PREINCUBATION",inactive; negative
same,mutagenic call,"Test System: AMES SALMONELLA TYPHIMURIUM, Strain/Indicator: TA97, Metabolic Activation: NONE, Method: PREINCUBATION",inactive; negative
same,mutagenic call,"Test System: AMES SALMONELLA TYPHIMURIUM, Strain/Indicator: TA97, Metabolic Activation: RAT, LIVER, S-9, AROCLOR 1254 (10 OR 30%), Method: PREINCUBATION",inactive; negative
same,mutagenic call,"Test System: AMES SALMONELLA TYPHIMURIUM, Strain/Indicator: TA98, Metabolic Activation: HAMSTER, LIVER, S-9, AROCLOR 1254 (10 OR 30%), Method: PREINCUBATION",inactive; negative
same,mutagenic call,[1],inactive; negative
same,mutagenic call,"Test System: AMES SALMONELLA TYPHIMURIUM, Strain/Indicator: TA98, Metabolic Activation: RAT, LIVER, S-9, AROCLOR 1254 (10 OR 30%), Method: PREINCUBATION",inactive; negative
same,mutagenic call,"Test System: AMES SALMONELLA TYPHIMURIUM, Strain/Indicator: TA100, Metabolic Activation: HAMSTER, LIVER, S-9, AROCLOR 1254 (10 OR 30%), Method: PREINCUBATION",inactive; negative
same,mutagenic call,[2],inactive; negative
same,mutagenic call,"Test System: AMES SALMONELLA TYPHIMURIUM, Strain/Indicator: TA100, Metabolic Activation: RAT, LIVER, S-9, AROCLOR 1254 (10 OR 30%), Method: PREINCUBATION",inactive; negative
same,mutagenic call,"Test System: AMES SALMONELLA TYPHIMURIUM, Strain/Indicator: TA1535, Metabolic Activation: HAMSTER, LIVER, S-9, AROCLOR 1254 (10 OR 30%), Method: PREINCUBATION",inactive; negative
same,mutagenic call,[3],inactive; negative
same,mutagenic call,"Test System: AMES SALMONELLA TYPHIMURIUM, Strain/Indicator: TA1535, Metabolic Activation: RAT, LIVER, S-9, AROCLOR 1254 (10 OR 30%), Method: PREINCUBATION",inactive; negative
same,mutagenic call,"Test System: AMES SALMONELLA TYPHIMURIUM, Strain/Indicator: TA1537, Metabolic Activation: HAMSTER, LIVER, S-9, AROCLOR 1254 (30%), Method: PREINCUBATION",inactive; negative
same,mutagenic call,[4],inactive; negative
same,mutagenic call,"Test System: AMES SALMONELLA TYPHIMURIUM, Strain/Indicator: TA1537, Metabolic Activation: RAT, LIVER, S-9, AROCLOR 1254 (30%), Method: PREINCUBATION",inactive; negative
FCC1CO1 (centres undefined),mutagenic call,"Test System: AMES SALMONELLA TYPHIMURIUM, Strain/Indicator: TA98, Metabolic Activation: HAMSTER, LIVER, S-9, AROCLOR 1254 (30%), Method: PREINCUBATION",inactive; negative
same,mutagenic call,[1],inactive; negative
same,mutagenic call,"Test System: AMES SALMONELLA TYPHIMURIUM, Strain/Indicator: TA98, Metabolic Activation: RAT, LIVER, S-9, AROCLOR 1254 (30%), Method: PREINCUBATION",inactive; negative
same,mutagenic call,"Test System: AMES SALMONELLA TYPHIMURIUM, Strain/Indicator: TA100, Metabolic Activation: HAMSTER, LIVER, S-9, AROCLOR 1254 (30%), Method: PREINCUBATION",active; positive
same,mutagenic call,[2],active; positive
same,mutagenic call,"Test System: AMES SALMONELLA TYPHIMURIUM, Strain/Indicator: TA100, Metabolic Activation: RAT, LIVER, S-9, AROCLOR 1254 (30%), Method: PREINCUBATION",active; positive
[Cl][Sb]([Cl])([Cl])([Cl])[Cl],mutagenic call,[1],inactive; negative
same,mutagenic call,"Test System: AMES SALMONELLA TYPHIMURIUM, Strain/Indicator: TA98, Metabolic Activation: RAT, LIVER, S-9 (10%), Method: PREINCUBATION",inactive; negative
same,mutagenic call,[2],inactive; negative
same,mutagenic call,"Test System: AMES SALMONELLA TYPHIMURIUM, Strain/Indicator: TA100, Metabolic Activation: RAT, LIVER, S-9 (10%), Method: PREINCUBATION",inactive; negative
CCCC(=O)c1cc(O)c(O)cc1O,mutagenic call,"Test System: AMES SALMONELLA TYPHIMURIUM, Strain/Indicator: TA98, Metabolic Activation: HAMSTER, LIVER, S-9, AROCLOR 1254 (10%), Method: PREINCUBATION",active; positive
same,mutagenic call,[1],inactive; negative
same,mutagenic call,"Test System: AMES SALMONELLA TYPHIMURIUM, Strain/Indicator: TA98, Metabolic Activation: RAT, LIVER, S-9, AROCLOR 1254 (10%), Method: PREINCUBATION",inactive; negative
same,mutagenic call,"Test System: AMES SALMONELLA TYPHIMURIUM, Strain/Indicator: TA100, Metabolic Activation: HAMSTER, LIVER, S-9, AROCLOR 1254 (10%), Method: PREINCUBATION",inactive; negative
same,mutagenic call,[2],inactive; negative
same,mutagenic call,"Test System: AMES SALMONELLA TYPHIMURIUM, Strain/Indicator: TA100, Metabolic Activation: RAT, LIVER, S-9, AROCLOR 1254 (10%), Method: PREINCUBATION",active; positive
same,mutagenic call,"Test System: AMES SALMONELLA TYPHIMURIUM, Strain/Indicator: TA1535, Metabolic Activation: HAMSTER, LIVER, S-9, AROCLOR 1254 (10%), Method: PREINCUBATION",inactive; negative
same,mutagenic call,[3],inactive; negative
same,mutagenic call,"Test System: AMES SALMONELLA TYPHIMURIUM, Strain/Indicator: TA1535, Metabolic Activation: RAT, LIVER, S-9, AROCLOR 1254 (10%), Method: PREINCUBATION",inactive; negative
same,mutagenic call,"Test System: AMES SALMONELLA TYPHIMURIUM, Strain/Indicator: TA1537, Metabolic Activation: HAMSTER, LIVER, S-9, AROCLOR 1254 (10%), Method: PREINCUBATION",inactive; negative
same,mutagenic call,[4],inactive; negative
same,mutagenic call,"Test System: AMES SALMONELLA TYPHIMURIUM, Strain/Indicator: TA1537, Metabolic Activation: RAT, LIVER, S-9, AROCLOR 1254 (10%), Method: PREINCUBATION",active; positive
CCC(C)ON=O (centres undefined),mutagenic call,"Test System: AMES SALMONELLA TYPHIMURIUM, Strain/Indicator: TA98, Metabolic Activation: HAMSTER, LIVER, S-9, AROCLOR 1254, Method: STANDARD PLATE",inactive; negative
same,mutagenic call,[5],inactive; negative
same,mutagenic call,[6],inactive; negative
same,mutagenic call,"Test System: AMES SALMONELLA TYPHIMURIUM, Strain/Indicator: TA100, Metabolic Activation: HAMSTER, LIVER, S-9, AROCLOR 1254, Method: STANDARD PLATE",inactive; negative
same,mutagenic call,[7],inactive; negative
same,mutagenic call,[8],inactive; negative
same,mutagenic call,"Test System: AMES SALMONELLA TYPHIMURIUM, Strain/Indicator: TA1535, Metabolic Activation: HAMSTER, LIVER, S-9, AROCLOR 1254, Method: STANDARD PLATE",active; positive
same,mutagenic call,[9],inactive; negative
same,mutagenic call,[10],active; positive
same,mutagenic call,"Test System: AMES SALMONELLA TYPHIMURIUM, Strain/Indicator: TA1537, Metabolic Activation: HAMSTER, LIVER, S-9, AROCLOR 1254, Method: STANDARD PLATE",inactive; negative
same,mutagenic call,[11],inactive; negative
same,mutagenic call,[12],inactive; negative
same,mutagenic call,"Test System: MOUSE LYMPHOMA, Strain/Indicator: L5178Y (TK+/TK-), Metabolic Activation: NONE, Method: SUSPENSION/PLATE",active; positive. reevaluation of results: positive
same,mutagenic call,"Test System: MOUSE LYMPHOMA, Strain/Indicator: L5178Y (TK+/TK-), Metabolic Activation: RAT, LIVER, S-9, AROCLOR 1254, Method: SUSPENSION/PLATE",active; positive. reevaluation of results: positive
COc1ccc(S(=O)(=O)n2ncc(Cl)c(Cl)c2=O)cc1,mutagenic call,[5],inactive; negative
same,mutagenic call,[6],inactive; negative
same,mutagenic call,[7],inactive; negative
same,mutagenic call,[8],inactive; negative
same,mutagenic call,[9],inactive; negative
same,mutagenic call,[10],inactive; negative
same,mutagenic call,[11],inactive; negative
same,mutagenic call,[12],inactive; negative
